From patent publication US20080312333A1, “Agent for Preventing/Ameliorating Life Style-Related Diseases Containing Turmeric Essential Oil Component” (Kaneka Corporation, priority 2004, published 2008) come the findings set out here.

The target in this test is T1, PPARγ (Homo sapiens, UniProt P37231).
T1 construct: GAL4 (yeast transcription factor, amino acids 1-147); expressed in transfected cells; host or cells: CV-1 cells (African green monkey kidney)
T1 sequence (P37231 204-505): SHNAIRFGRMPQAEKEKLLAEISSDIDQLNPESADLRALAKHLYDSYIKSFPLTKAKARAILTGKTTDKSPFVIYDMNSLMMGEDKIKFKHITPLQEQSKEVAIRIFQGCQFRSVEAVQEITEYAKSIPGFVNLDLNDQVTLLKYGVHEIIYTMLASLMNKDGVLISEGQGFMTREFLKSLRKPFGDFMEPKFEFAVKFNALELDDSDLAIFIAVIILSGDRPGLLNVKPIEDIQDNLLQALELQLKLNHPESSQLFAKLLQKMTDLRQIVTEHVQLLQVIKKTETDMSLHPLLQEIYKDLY
Briefly: PPARγ ligand activity, GAL4-PPARγ ligand binding site luciferase reporter in CV-1 cells. The test is classed as cell-based. The note with it: for PPARγ ligand activity: ratio to no treatment control (1.00), mean ± standard error, n = 3. As for the experimental part:
CV-1 cells (male African green monkey kidney-derived cultured cells) were seeded onto a 96-well culture plate (6×10^3 cells/well) and cultured under conditions of 37° C. and 5% CO2 for 24 hours. The medium used was DMEM (Dulbecco's modified Eagle medium; GIBCO) supplemented with 10% FBS (fetal bovine serum), 10 ml/L of a solution of penicillin and streptomycin (5,000 IU/ml and 5,000 μg/ml, respectively; GIBCO) and 37 mg/L of ascorbic acid (Wako Pure Chemical Industries, Ltd.). […] Each sample was dissolved in dimethyl sulfoxide (DMSO) and the solution, or DMSO used in a no treatment control group, was added to the medium to each concentration given in Table 4. Cells were washed with phosphate-buffered saline (PBS+) containing Ca and Mg, then luclite (PerkinElmer), a luciferase chemiluminescence reagent, was added, and the luciferase-due chemiluminescence intensity was measured using a TopCount microplate scintillation/luminescence counter (PerkinElmer).
In general terms: A reporter such as luciferase makes a cellular process visible.

As to `CC(C)=CC(=O)C[C@H](C)c1ccc(C)cc1` [ar-turmerone], the PPARγ ligand activity is, setting by setting: (addition level 2 μg/ml) 1.51 ± 0.14; (addition level 5 μg/ml) 2.33 ± 0.59. Also, the “PPARγ ligand activity (in words)” value (summary of Table 4) was “found to have PPARγ ligand activity”.
